Test results as given in paper PMC11487905, “Dalbavancin-resistant Staphylococcus epidermidis in vivo selection following a prosthetic joint infection: phenotypic and genomic characterization” (JAC-Antimicrobial Resistance, 2024).
Converted amounts (≈) assume the structure as drawn.

How the values were obtained:
[1] = tested on: linezolid-resistant MDR S. epidermidis (LR-MDRSE) isolates; experiment: microbe, parasite or virus in culture; type: cell-based, Staphylococcus epidermidis; details: for Increase of MIC between isolates: STA1 (Day 24) to STA3 (Day 240)
Method: Isolates were identified by MALDI-TOF mass spectrometry (VITEK MS, bioMérieux, Marcy-l’Étoile, France). Antibiotic susceptibility testing was performed using the AST-P668 bioMérieux card using a VITEK XL automated system (bioMérieux). Dalbavancin, ceftaroline, delafloxacin, tigecycline and daptomycin MICs were determined using a 0.5 McFarland bacterial inoculum on Mueller–Hinton agar plates with gradient strips (Liofilchem, Roseto degli Abruzzi, Italy) incubated for 24 h at 35°C. Interpretation of the susceptibility was made according to the EUCAST 2022 criteria.

[2] = tested on: S. aureus; details: seven isolates of S. aureus (including four vancomycin-intermediate strains); ref 14 (Lepak et al.); cited from earlier work
From the text: fAUC0–24/MIC best correlates with in vivo efficacy of dalbavancin.[13]

[3] = cited from earlier work
Method: Dalbavancin has a similar mechanism of action and spectrum as vancomycin but with increased potency, higher protein binding and an elimination half-life up to 60 times longer.[10] […] N ... || Because of the long-term duration, dalbavancin therapeutic drug monitoring was performed. Plasma trough concentrations were measured using a validated LC coupled with MS method (Acquity UPLC® BEH C18 and Acquity QDA, Waters, France). […] We therefo ... || Moreover, the clinical infections caused by biofilms poses a serious threat to public health. Staphylococcus spp. biofilms stand out as one of the most prevalent, especially in osteoarticular infection and PJI. […] Thus, new therapeutic strategies targeting biofilms and MDR bacteria are urgently needed.

[4] = Dalbavancin therapeutic drug monitoring: plasma trough concentration and extrapolated fAUC0–24/MIC; type: in vivo, patient; details: for Plasma trough concentration: 1500 mg IV, LC-MS
From the text: We therefore used this methodology for fAUC0–24 determination.

[5] = tested on: LR-MDRSE PJI; type: in vivo, patient
Method: A person underwent a revision of a medial unicompartmental knee arthroplasty to total knee arthroplasty (TKA) for progressive arthritis of the lateral joint.
It was subsequently decided to perform debridement, antibiotics and implant retention (DAIR) with a change of modular implants. […] A treatment shift to dalbavancin 1500 mg IV on Days 35, 49, 71 and 106, combined with doxycycline 200 mg/day for 3 months was initiated.
The evolution was considered unfavourable due to a loco-regional inflammatory syndrome with persistent chronic pain.
A revision of the knee was decided upon, with five bacteriological samples collected. As previously, they tested positive with the same LR-MDRSE strain (Day 371). Ceftaroline (1800 mg/day) and doxycycline (200 mg/day) combination treatment was administered for the next 12 weeks. […] His C-reactive protein level was <4 mg/L (reference range: <4 mg/L). However, suppressive doxycycline therapy was maintained (200 mg/day).

[6] = after four injections of dalbavancin 1500 mg IV
[7] = Staphylococcus epidermidis, 576 h
[8] = Staphylococcus epidermidis, isolate STA1, Day 24, gradient strip, 0.5 McFarland, Mueller–Hinton agar, 24 h at 35°C
[9] = Staphylococcus epidermidis, isolate STA3, Day 240, gradient strip, 0.5 McFarland, Mueller–Hinton agar, 24 h at 35°C
[10] = ceftaroline 1800 mg/day combined with doxycycline 200 mg/day for 12 weeks after knee revision

CN[C@H]1C(=O)N[C@@H]2Cc3ccc(cc3)Oc3cc4cc(c3O[C@@H]3O[C@H](C(=O)O)[C@@H](O)[C@H](O)[C@H]3NC(=O)CCCCCCCCC(C)C)Oc3ccc(cc3Cl)[C@@H](O)[C@@H]3NC(=O)[C@H](NC(=O)[C@@H]4NC(=O)[C@@H](NC2=O)c2cc(cc(O)c2Cl)Oc2cc1ccc2O)c1ccc(O)c(c1)-c1c(O[C@H]2O[C@H](CO)[C@@H](O)[C@H](O)[C@@H]2O)cc(O)cc1[C@@H](C(=O)NCCCN(C)C)NC3=O [Dalbavancin]
Increase of MIC between isolates [1, 6]: 4 fold | Susceptibility of the strain (in words) ([1]; STA1, Day 24): susceptible | Susceptibility of the strain (in words) ([1]; STA3, Day 240): resistant | MIC ([1]; isolate STA1, Day 24, gradient strip, 0.5 McFarland, Mueller–Hinton agar, 24 h at 35°C): 0.032 µg/mL (≈ 0.0176 µM) | MIC ([1]; isolate STA3, Day 240, gradient strip, 0.5 McFarland, Mueller–Hinton agar, 24 h at 35°C): 0.5 µg/mL (≈ 0.275 µM) | fAUC0–24/MIC value for 1-log kill [2]: 53.3 | fAUC0–24/MIC value for 2-log kill [2]: 111.1 | fAUC0–24/MIC value for net stasis [2]: 27.1 | Elimination half-life relative to vancomycin [3]: up to 60 times longer | Bound to plasma proteins ([3]; plasma): 93% | Half-life ([3]; prolonged half-life): about 14 days | Plasma trough concentration ([4]; Day 49, 14 days after the last dose): 18 mg/L | Calculated fAUC0–24/MIC ratio ([4]; Day 49, assuming an MIC of 0.032 mg/L, extrapolated from single trough, 93% protein bound): 945 | Calculated fAUC0–24/MIC ratio ([4]; Day 49, assuming an MIC of 0.5 mg/L): 60 | Plasma trough concentration ([4]; Day 71, 22 days after the last dose): 23.6 mg/L | Calculated fAUC0–24/MIC ratio ([4]; Day 71, assuming an MIC of 0.032 mg/L): 1239 | Calculated fAUC0–24/MIC ratio ([4]; Day 71, assuming an MIC of 0.5 mg/L): 79 | Plasma trough concentration ([4]; Day 106, 35 days after the last dose): 14.6 mg/L | Calculated fAUC0–24/MIC ratio ([4]; Day 106, assuming an MIC of 0.032 mg/L): 766.5 | Calculated fAUC0–24/MIC ratio ([4]; Day 106, assuming an MIC of 0.5 mg/L): 49 | Clinical outcome of treatment ([5]; dalbavancin 1500 mg IV on Days 35, 49, 71 and 106, combined with doxycycline 200 mg/day for 3 months, after DAIR): treatment failure

COc1cccc(OC)c1C(=O)N[C@@H]1C(=O)N2[C@@H]1SC(C)(C)[C@@H]2C(=O)O [methicillin]
Susceptibility of the strain (in words) ([1]; STA1, Day 24): resistant

NC[C@H]1O[C@H](O[C@H]2[C@H](O)[C@@H](O[C@H]3O[C@H](CO)[C@@H](O)[C@H](N)[C@H]3O)[C@H](N)C[C@@H]2N)[C@H](N)C[C@@H]1O [Tobramycin]
MIC ([1]; Staphylococcus epidermidis): > 8 µg/mL | MIC [1, 7]: > 8 µg/mL

CC(=O)O[C@H]1C[C@@]2(C)[C@@H](C[C@@H](O)[C@H]3[C@@]4(C)CC[C@@H](O)[C@@H](C)[C@@H]4CC[C@@]32C)/C1=C(\CCC=C(C)C)C(=O)O [Fusidic acid]
MIC ([1]; Staphylococcus epidermidis): > 4 µg/mL | MIC [1, 7]: > 4 µg/mL

CC(=O)NC[C@H]1CN(c2ccc(N3CCOCC3)c(F)c2)C(=O)O1 [Linezolid]
Susceptibility of the strain (in words) ([1]; STA1, Day 24): resistant | MIC ([1]; Staphylococcus epidermidis): > 4 µg/mL | MIC [1, 7]: > 4 µg/mL

Cc1onc(-c2ccccc2)c1C(=O)N[C@@H]1C(=O)N2[C@@H]1SC(C)(C)[C@@H]2C(=O)O [Oxacillin]
MIC ([1]; Staphylococcus epidermidis): > 2 µg/mL | MIC [1, 7]: > 2 µg/mL

CN[C@H](CC(C)C)C(=O)N[C@H]1C(=O)N[C@@H](CC(N)=O)C(=O)N[C@H]2C(=O)N[C@H]3C(=O)N[C@H](C(=O)N[C@H](C(=O)O)c4cc(O)cc(O)c4-c4cc3ccc4O)[C@H](O)c3ccc(c(Cl)c3)Oc3cc2cc(c3O[C@@H]2O[C@H](CO)[C@@H](O)[C@H](O)[C@H]2O[C@H]2C[C@](C)(N)[C@H](O)[C@H](C)O2)Oc2ccc(cc2Cl)[C@H]1O [Vancomycin]
Increase of MIC between isolates [1]: > 5 fold

CNC(C)C1CCC(N)C(OC2C(N)CC(N)C(OC3OCC(C)(O)C(NC)C3O)C2O)O1 (centres unmarked) [Gentamicin]
MIC ([1]; Staphylococcus epidermidis): > 8 µg/mL | MIC [1, 7]: > 8 µg/mL

CC1COc2c(N3CCN(C)CC3)c(F)cc3c(=O)c(C(=O)O)cn1c23 (centres unmarked) [Ofloxacin]
MIC ([1]; Staphylococcus epidermidis): > 4 µg/mL | MIC [1, 7]: > 4 µg/mL

C[C@@H]1O[C@@H]1P(=O)(O)O [Fosfomycin]
MIC ([1]; Staphylococcus epidermidis): > 64 µg/mL | MIC [1, 7]: > 64 µg/mL

CO[C@H]1/C=C/O[C@@]2(C)Oc3c(C)c(O)c4c(O)c(c(/C=N/N5CCN(C)CC5)c(O)c4c3C2=O)NC(=O)/C(C)=C\C=C\[C@H](C)[C@H](O)[C@@H](C)[C@@H](O)[C@@H](C)[C@H](OC(C)=O)[C@@H]1C [Rifampin]
Susceptibility of the strain (in words) ([1]; STA1, Day 24): resistant | MIC ([1]; Staphylococcus epidermidis): > 2 µg/mL | MIC [1, 7]: > 2 µg/mL

CC[C@H]1OC(=O)[C@H](C)[C@@H](O[C@H]2C[C@@](C)(OC)[C@@H](O)[C@H](C)O2)[C@H](C)[C@@H](O[C@@H]2O[C@H](C)C[C@H](N(C)C)[C@H]2O)[C@](C)(O)C[C@@H](C)C(=O)[C@H](C)[C@@H](O)[C@]1(C)O [Erythromycin]
MIC ([1]; Staphylococcus epidermidis): > 4 µg/mL | MIC [1, 7]: > 4 µg/mL

CN(C)c1cc(NC(=O)CNC(C)(C)C)c(O)c2c1C[C@H]1C[C@H]3[C@H](N(C)C)C(O)=C(C(N)=O)C(=O)[C@@]3(O)C(O)=C1C2=O [Tigecycline]
MIC [1, 8]: 0.19 µg/mL (≈ 0.324 µM) | MIC [1, 9]: 0.25 µg/mL (≈ 0.427 µM)

CCO/N=C(\C(=O)N[C@@H]1C(=O)N2C(C(=O)[O-])=C(Sc3nc(-c4cc[n+](C)cc4)cs3)CS[C@H]12)c1nsc(N)n1 [Ceftaroline]
Susceptibility of the strain (in words) ([1]; STA1, Day 24): susceptible | Susceptibility of the strain (in words) ([1]; STA3, Day 240): susceptible | MIC [1, 8]: 1 µg/mL (≈ 1.65 µM) | MIC [1, 9]: 0.75 µg/mL (≈ 1.24 µM) | Clinical evolution under treatment [5, 10]: favourable | Tolerability of treatment [5, 10]: well tolerated

CCCCCCCCCC(=O)N[C@@H](Cc1c[nH]c2ccccc12)C(=O)N[C@H](CC(N)=O)C(=O)N[C@@H](CC(=O)O)C(=O)N[C@@H]1C(=O)NCC(=O)N[C@@H](CCCN)C(=O)N[C@@H](CC(=O)O)C(=O)N[C@H](C)C(=O)N[C@@H](CC(=O)O)C(=O)NCC(=O)N[C@H](CO)C(=O)N[C@@H]([C@H](C)CC(=O)O)C(=O)N[C@@H](CC(=O)c2ccccc2N)C(=O)O[C@@H]1C [Daptomycin]
Increase of MIC between isolates [1, 6]: 6 fold

Nc1nc(-n2cc(C(=O)O)c(=O)c3cc(F)c(N4CC(O)C4)c(Cl)c32)c(F)cc1F [Delafloxacin]
MIC [1, 8]: 1 µg/mL (≈ 2.27 µM) | MIC [1, 9]: 8 µg/mL (≈ 18.2 µM)

CCC[C@@H]1C[C@@H](C(=O)N[C@@H]([C@H]2O[C@H](SC)[C@H](O)[C@@H](O)[C@H]2O)[C@@H](C)O)N(C)C1 [Lincomycin]
MIC ([1]; Staphylococcus epidermidis): > 8 µg/mL | MIC [1, 7]: > 8 µg/mL
